Assays:
mannose isomerase [1] = experiment: mannose isomerase activity of the enzyme of the invention (optimum conditions, substrates, inhibitors); type: biochemical, Pseudomonas sp. AM-9582; conditions: for Inhibition of the enzyme: 5×10^-3 M of inhibitor
Experimental: It is active in a pH range from about 6 to 11, but the optimum pH is about 8 (under the reaction condition of 50° C. for 30 minutes, in 0.1M phosphate buffer).
It is active up to about 70° C., but the optimum temperature is about 55° C. under the reaction conditions of 0.1M mannose, 0.05M Tris buffer (pH 7.0) for 30 minutes.
(§1) Into 0.5 ml of a 0.1M phosphate buffer (pH 7.0) containing 0.2M mannose dissolved therein is added a suitable amount of the enzyme, the total volume is made up with water to 1.0 ml, and the reaction mixture is incubated at 50° C. The amount of fructose formed is determined by the cysteine-carbazole method. The amount of the enzyme forming 1 micromole of fructose per one minute under this condition is defined as one unit.

mannose isomerase [2] = experiment: thermal and pH stability of the enzyme of the invention (residual activity); type: physicochemical, Pseudomonas sp. AM-9582; conditions: presence of calcium ions
Experimental: The residual activities after heating treatment at 60° C. for 5, 10, 15, 20, 30 minutes in 0.05M Tris buffer (pH 7.0) are, about 90%, 68%, 52%, 42%, 30% respectively.
The residual activity was measured after the enzyme was incubated in 0.1M buffer (acetate or phosphate buffer) of various pH at room temperature (25° C.) for 3 hours. As the result, it is stable in the pH range 6 to 9.
as §1

Salmonella = conditions: cited from earlier work

Row | Substrate specificity (activity of the enzyme on the sugar) (mannose isomerase [1]) | Structure (SMILES) | also measured
1 | not substantially | C[C@@H](O)[C@H](O)[C@H](O)[C@@H](O)C=O [D-fucose] | 
2 | not substantially | O=C[C@@H](O)[C@H](O)[C@H](O)CO [D-arabinose] | 
3 | not substantially | O=C[C@H](O)[C@@H](O)[C@@H](O)CO [L-arabinose] | 
4 | not substantially | O=C[C@H](O)[C@H](O)[C@H](O)CO [D-ribose] | 
5 | not substantially | O=C[C@@H](O)[C@H](O)[C@@H](O)CO [L-xylose] | 
6 |  | O=[N+]([O-])[O-].[Ag+] [AgNO3] | Inhibition of the enzyme (mannose isomerase [1]): strongly inhibited
7 |  | O=S(=O)([O-])[O-].[Fe+2] [FeSO4] | Inhibition of the enzyme (mannose isomerase [1]): strongly inhibited
8 | not substantially | C[C@H](O)[C@@H](O)[C@@H](O)[C@H](O)C=O [L-fucose] | 
9 | not substantially | O=C[C@H](O)[C@@H](O)[C@H](O)CO [D-xylose] | 
10 |  | [Ca+2] [calcium ions] | Effect on thermal stability of the enzyme (mannose isomerase [2]): increases the thermal stability
11 |  | [Cl][Al]([Cl])[Cl] [AlCl3] | Inhibition of the enzyme (mannose isomerase [1]): strongly inhibited
12 |  | O=C(O)c1cc[c]([Hg][Cl])cc1 [p-chloromercury benzoate] | Inhibition of the enzyme (mannose isomerase [1]): strongly inhibited
13 | not substantially | C[C@@H](O)[C@@H](O)[C@H](O)[C@H](O)C=O [D-rhamnose] | 
14 | active | O=C[C@@H](O)[C@@H](O)[C@H](O)CO [D-lyxose] | 
15 |  | [Cl][Hg][Cl] [HgCl2] | Inhibition of the enzyme (mannose isomerase [1]): strongly inhibited
16 | not substantially | O=C[C@H](O)[C@@H](O)[C@H](O)[C@H](O)CO [D-glucose] | 
17 | not substantially | C[C@H](O)[C@H](O)[C@@H](O)[C@@H](O)C=O [L-rhamnose] | 

Row | Structure (SMILES) | Substrate specificity (activity of the enzyme on the sugar) (mannose isomerase [1]) | also measured
18 | O=C[C@@H](O)[C@@H](O)[C@H](O)[C@H](O)CO [D-mannose] | active | Growth of Salmonella (Salmonella): inhibits the growth

— patent US5240717A, “Process for mannose and mannose isomerase production using mannose isomerase-producing pseudomonas” (Amano Pharmaceutical Co., Ltd., priority 1990, dated 1993)
